Test results from the supplement of paper PMC11451515.

Test system: SEM cells
Assay: cell viability relative to DMSO control; higher = less cytotoxic
Conditions: 48 h
Method in brief: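 Viability values are per-plate percentages of DMSO wells, with background from cell-free wells. Library compounds in DMSO were pin-dosed, in an 11-point threefold series from 47 μM to 0.79 nM, onto NOMO1 or SEM (500 cells/well) or P12-Ichikawa (1000 cells/well) leukemia cells in 1536-well plates (5 μl). Those cells had been adapted for at least four passages in each medium, and CellTiter-Glo One luminescence was read after 48 h at 37°C.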

[1] = HPLM + 10% dialyzed FBS, 0.000781 µM
[2] = HPLM + 10% dialyzed FBS, 0.00234 µM
[3] = HPLM + 10% dialyzed FBS, 0.00702 µM
[4] = HPLM + 10% dialyzed FBS, 0.0211 µM
[5] = HPLM + 10% dialyzed FBS, 0.0632 µM
[6] = HPLM + 10% dialyzed FBS, 0.19 µM
[7] = HPLM + 10% dialyzed FBS, 0.569 µM
[8] = HPLM + 10% dialyzed FBS, 1.71 µM
[9] = HPLM + 10% dialyzed FBS, 5.12 µM
[10] = HPLM + 10% dialyzed FBS, 15.4 µM
[11] = HPLM + 10% dialyzed FBS, 46.1 µM
[12] = RPMI 5 mM glucose + 10% FBS, 0.000781 µM
[13] = RPMI 5 mM glucose + 10% FBS, 0.00234 µM
[14] = RPMI 5 mM glucose + 10% FBS, 0.00702 µM
[15] = RPMI 5 mM glucose + 10% FBS, 0.0211 µM
[16] = RPMI 5 mM glucose + 10% FBS, 0.0632 µM
[17] = RPMI 5 mM glucose + 10% FBS, 0.19 µM
[18] = RPMI 5 mM glucose + 10% FBS, 0.569 µM
[19] = RPMI 5 mM glucose + 10% FBS, 1.71 µM
[20] = RPMI 5 mM glucose + 10% FBS, 5.12 µM
[21] = RPMI 5 mM glucose + 10% FBS, 15.4 µM
[22] = RPMI 5 mM glucose + 10% FBS, 46.1 µM
[23] = RPMI 5 mM glucose + 10% dialyzed FBS, 0.000781 µM
[24] = RPMI 5 mM glucose + 10% dialyzed FBS, 0.00234 µM
[25] = RPMI 5 mM glucose + 10% dialyzed FBS, 0.00702 µM
[26] = RPMI 5 mM glucose + 10% dialyzed FBS, 0.0211 µM
[27] = RPMI 5 mM glucose + 10% dialyzed FBS, 0.0632 µM
[28] = RPMI 5 mM glucose + 10% dialyzed FBS, 0.19 µM
[29] = RPMI 5 mM glucose + 10% dialyzed FBS, 0.569 µM
[30] = RPMI 5 mM glucose + 10% dialyzed FBS, 1.71 µM
[31] = RPMI 5 mM glucose + 10% dialyzed FBS, 5.12 µM
[32] = RPMI 5 mM glucose + 10% dialyzed FBS, 15.4 µM
[33] = RPMI 5 mM glucose + 10% dialyzed FBS, 46.1 µM

Structure (SMILES)	cell viability [1] [%]	cell viability [2] [%]	cell viability [3] [%]	cell viability [4] [%]	cell viability [5] [%]	cell viability [6] [%]	cell viability [7] [%]	cell viability [8] [%]	cell viability [9] [%]	cell viability [10] [%]	cell viability [11] [%]	cell viability [12] [%]	cell viability [13] [%]	cell viability [14] [%]	cell viability [15] [%]	cell viability [16] [%]	cell viability [17] [%]	cell viability [18] [%]	cell viability [19] [%]	cell viability [20] [%]	cell viability [21] [%]	cell viability [22] [%]	cell viability [23] [%]	cell viability [24] [%]	cell viability [25] [%]	cell viability [26] [%]	cell viability [27] [%]	cell viability [28] [%]	cell viability [29] [%]	cell viability [30] [%]	cell viability [31] [%]	cell viability [32] [%]	cell viability [33] [%]
NC(=O)c1nnn(Cc2cc(Cl)c(C(=O)c3ccc(Cl)cc3)c(Cl)c2)c1N	112	116	125	107	127	128	135	116	111	124	89.4	115	133	117	114	112	127	120	110	107	106	67.6	88.6	113	89.8	90.5	116	95.1	99.7	101	107	97.6	48.6
CC1(C)CCC(C)(C)c2cc(NC(=O)c3ccc(C(=O)O)cc3)ccc21	88.1	107	98.5	107	115	101	124	110	104	120	97.4	100	93.3	111	115	119	111	113	111	116	123	105	90.9	92.4	84.7	95.6	91.9	93	103	94.6	105	101	87.7
CCc1nc(N)nc(N)c1-c1ccc(Cl)cc1	89	95	68.1	108	115	106	98.9	63	41	47.6	36.6	77	81.2	63.4	91.9	97.1	99.3	93	87.3	36	93.9	83.6	77.4	92.2	70.5	96.5	98.4	92.4	95.3	101	48.6	85.9	46.6
CN(C)CCc1c[nH]c2ccc(Cn3cncn3)cc12	76.1	88.7	97.4	96.4	98	48.5	55	23	9.54	8.01	7.53	86	91	86.9	84.9	75.8	30.7	36.3	10.4	7.9	7.16	6.13	91.4	96.1	88.9	97.5	79.3	43.4	50.7	18.2	9.37	8.33	6.69
C[C@@H](Cc1cc2c(c(C(N)=O)c1)N(CCCO)CC2)NCCOc1ccccc1OCC(F)(F)F	86.8	85.3	76.7	82.9	99	96.7	95.5	97.3	101	98.1	88.7	95.1	111	114	112	119	107	121	101	102	110	99.2	93.4	98.3	101	110	123	118	111	142	110	110	82.9
CCC(=O)N1CCN(CC1)C2=C(C=C(C=C2)N3C(=O)\C=C/C4=C3C5=CC(=CC=C5N=C4)C6=CN=C7C=CC=CC7=C6)C(F)(F)F	77.6	88.7	85.9	73.8	57.8	67.8	46.9	48.7	47.5	34.4	29	97	102	90.1	80.6	56.7	59.7	48	45	45	47.9	30.9	83.4	92.6	91.5	84.1	61.2	62.7	46	54.7	42.5	42.8	33.1
Clc1ccc(C(c2ccccc2Cl)C(Cl)Cl)cc1 (centres undefined)	119	116	120	121	139	36.1	117	126	33.2	109	85.9	116	121	111	110	112	36.7	137	106	12.6	97.6	75.1	–	–	–	–	–	–	–	–	–	–	–
CN(CC(=O)N(Cc1ccc(C2CCCCC2)cc1)c1ccc(C(=O)O)c(O)c1)[S+](=O)([O-])c1c(F)c(F)c(F)c(F)c1F	83.5	94.7	104	95.8	103	93.7	92.7	97.7	84.8	86.5	31.1	80.8	104	90	93.1	88.9	101	103	97.8	77.4	54.8	6.03	87	91.1	93.1	89.2	103	101	84.5	91.3	80.3	66.6	19.9
NC(=O)N1CCC(CC(=O)N2CCC([C@H]3c4ncc(Br)cc4CCc4cc(Cl)cc(Br)c43)CC2)CC1	106	99.3	114	124	111	118	72.5	57.1	48.6	45.7	34.8	114	122	120	129	111	122	82.4	66.3	46	44.4	24.1	98.1	109	110	101	97.2	114	95.9	84.4	56.1	58	17.8
COC(=O)CCC1=C(C)C2=CC3=NC(=CC4=C(C)C(=C([NH]4)C=C\5N=C(C=C1[NH]2)\C(=C5C)CCC(O)=O)C=C)\C6=C\C=C(/[C@@H](C(=O)OC)[C@@]36C)C(=O)OC	88.5	83.3	89.7	85.4	94.2	94.4	98	95.7	91.7	82.7	77.4	89.4	92	91.8	94.9	95.2	98.1	87.7	98.9	95.4	89.7	75.4	86.6	90.7	101	108	105	122	104	108	105	91.3	80.4
CC[C@H](CO)Nc1nc(NCc2ccccc2)c2ncn(C(C)C)c2n1	89.9	96.2	95.3	86.9	93.7	96.8	83.7	99.8	94	98.1	58.7	114	97.4	128	111	112	126	126	99.9	108	120	63.6	102	102	88.6	88.2	90.8	95.6	98	97	102	88.1	35.3
Cn1cnc(N)c2ncnc1-2	80.5	96.4	111	103	109	88.9	112	80.3	32	5	4.54	90.9	99	92.9	87.1	87.8	99.5	87.2	63.6	14.7	4.31	3.65	108	109	115	84.9	112	98.6	118	82.6	24.8	5.27	4.09
O=c1oc2cc(O)ccc2s1	85.6	110	98.9	95.4	109	105	120	93.9	111	105	37.9	91.8	106	82.9	110	103	98.6	112	118	109	77.6	24.8	97.4	119	99.3	109	121	88.3	112	106	129	90.3	37.6
CCC(=O)O[C@@]1(CC[C@H]2[C@@H]3CCC/4=C/C(=O)CC[C@]4(C)[C@H]3CC[C@]12C)C(=O)CO	95.3	100	101	110	109	98.8	86.7	57.4	46.1	27.3	23.7	63.3	83.6	86	84	84.8	76.1	51	35.3	24.3	14.1	12.7	95.1	103	99.9	88.5	98	91.7	79.7	47.2	27.6	19.5	13.8
O=C(CCCN1CCC(O)(c2ccc(Cl)cc2)CC1)c1ccc(F)cc1	86.5	93.9	75.6	106	113	94.8	25.8	43.8	90.2	102	98.3	100	109	82.6	101	113	117	20.9	47.2	117	110	89.6	101	106	95.5	110	123	120	30.6	43	122	122	101
